Test results taken from ChEMBL document CHEMBL1201862, “PubChem BioAssay data set” (2004).
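Growth conditions: 96-well plates. Treatment: test compound, 48 hours, 5 concentrations. Analysis: linear interpolation between bracketing concentrations; unreached endpoints set to highest concentration. Here, GI50 denotes the concentration required for 50% inhibition of growth.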 The source made the active and inactive calls. Rule as the data show it: active = GI50 up to about 1.1 µM and inactive = higher.

Assays:
Assay in all cases: inhibition of tumour cell growth, NCI panel, 48 h
DMS-273 = system: DMS-273
M19-MEL = system: M19-MEL
KM-20L2 = system: KM-20L2
SNB-78 = system: SNB-78
DMS-114 = system: DMS-114
DLD-1 = system: DLD-1
XF498 = system: XF498
RXF 631 = system: RXF 631
HOP-18 = system: HOP-18

Measured: GI50

CC(C)Cn1cnc2c(Sc3c([N+](=O)[O-])ncn3C)nc(N)nc21
inactive: DMS-273 > 100 µM | M19-MEL > 100 µM | KM-20L2 > 100 µM | SNB-78 > 100 µM | DMS-114 > 100 µM

O=C1[C@H](Cl)[C@H]2c3cc4ccccc4nc3Oc3ccccc3N12
inactive: DMS-273 33.3 µM | M19-MEL 34.8 µM | DLD-1 84.9 µM | KM-20L2 43.4 µM | DMS-114 20.9 µM

CC1=C(O)C(=O)C2C(=O)C1C1Cc3ccccc3C21 (stereo not drawn)
inactive: DMS-273 > 100 µM | M19-MEL > 100 µM | DLD-1 > 100 µM | SNB-78 > 100 µM | XF498 > 100 µM | RXF 631 > 100 µM

CCN(CC)C(=O)C/C(C)=N/NC(=O)c1ccncc1
inactive: DMS-273 > 100 µM | DLD-1 > 100 µM | KM-20L2 > 100 µM | SNB-78 > 100 µM | XF498 > 100 µM | DMS-114 > 100 µM

O=[N+]([O-])[C@@H]1C2C=CC(C2)[C@H]1Cl (stereo partly drawn)
inactive: DMS-273 > 100 µM | M19-MEL > 100 µM | DLD-1 > 100 µM | SNB-78 > 100 µM | XF498 > 100 µM | HOP-18 > 100 µM | RXF 631 > 100 µM | DMS-114 > 100 µM

c1ccc2c(c1)OCCOCCOc1ccccc1OCCO2
inactive: DMS-273 41.2 µM | M19-MEL 41.9 µM | DLD-1 61.9 µM | KM-20L2 29.8 µM | SNB-78 > 100 µM | HOP-18 34.2 µM | DMS-114 84.1 µM

Cc1cc(CS(=O)(=O)/C=C/c2ccccc2[N+](=O)[O-])c(CS(=O)(=O)/C=C/c2ccccc2[N+](=O)[O-])cc1C
inactive: DMS-273 > 100 µM | M19-MEL > 100 µM | KM-20L2 > 100 µM | SNB-78 23 µM | XF498 15.5 µM | DMS-114 45.1 µM

CC1=C(c2cc(C(=O)Nc3ccc(Cl)c(Cl)c3)nc(N)n2)Sc2ccccc2N1
inactive: DMS-273 > 100 µM | M19-MEL > 100 µM | DLD-1 > 100 µM | KM-20L2 > 100 µM | SNB-78 > 100 µM | XF498 > 100 µM | HOP-18 > 100 µM | DMS-114 > 100 µM

O=C(O)c1c2c(c(C(=O)O)c3ccccc13)-c1ccccc1-2
inactive: DMS-273 49.3 µM | M19-MEL 69 µM | DLD-1 41.4 µM | KM-20L2 42.7 µM | SNB-78 71.1 µM | XF498 35.5 µM | HOP-18 20.4 µM | DMS-114 74.1 µM

COc1nc(NC2OCC(OC(C)=O)C(OC(C)=O)C2OC(C)=O)c(-c2csc(N)n2)c(=O)n1C (stereo not drawn)
inactive: M19-MEL > 100 µM | DLD-1 > 100 µM | KM-20L2 > 100 µM | SNB-78 > 100 µM | HOP-18 > 100 µM | RXF 631 > 100 µM | DMS-114 > 100 µM

CC1=CC(=O)c2c(C=O)c(O)c(O)c(C(C)C)c2C1=O
inactive: DMS-273 31 µM | M19-MEL 37.9 µM | DLD-1 23.9 µM | KM-20L2 29.1 µM | SNB-78 45.9 µM | XF498 20.6 µM | HOP-18 25.9 µM | DMS-114 22.6 µM

Cc1ccc(NC(=O)C2C(=O)N(c3ccc(C)c(C)c3)C(=O)C2N=N)cc1C (stereo not drawn)
inactive: DMS-273 86.5 µM | M19-MEL > 100 µM | DLD-1 > 100 µM | KM-20L2 > 100 µM | SNB-78 > 100 µM | XF498 > 100 µM | HOP-18 > 100 µM | RXF 631 > 100 µM | DMS-114 61.5 µM

COc1ccc2c3c([nH]c2c1[N+](=O)[O-])C(C)N(C)CC3 (stereo not drawn)
inactive: DMS-273 > 100 µM | M19-MEL > 100 µM | DLD-1 > 100 µM | KM-20L2 62.4 µM | SNB-78 > 100 µM | XF498 > 100 µM | HOP-18 19.4 µM | DMS-114 > 100 µM

O=C1CC(c2ccccc2)NCN1 (stereo not drawn)
inactive: DMS-273 > 100 µM | M19-MEL > 100 µM | DLD-1 > 100 µM | KM-20L2 > 100 µM | SNB-78 > 100 µM | HOP-18 > 100 µM | DMS-114 > 100 µM
